In patent publication US7998965B2, “Glutamate aggrecanase inhibitors” (Wyeth LLC, priority 2005, dated 2011):
Like-named read-outs stand apart in the source and are kept apart here.

Key:
[1] = molecular target: T1, purified recombinant human Aggrecanase-1 (rAgg1) (Homo sapiens, UniProt O75173); experiment: In vitro fluorescence screen for Aggrecanase-1 inhibitors; type: biochemical; set-up: Agg1 % at concentration: scale not given here; conditions: for IC50: read-out: Agg1 IC50
T1 sequence (O75173 213-837): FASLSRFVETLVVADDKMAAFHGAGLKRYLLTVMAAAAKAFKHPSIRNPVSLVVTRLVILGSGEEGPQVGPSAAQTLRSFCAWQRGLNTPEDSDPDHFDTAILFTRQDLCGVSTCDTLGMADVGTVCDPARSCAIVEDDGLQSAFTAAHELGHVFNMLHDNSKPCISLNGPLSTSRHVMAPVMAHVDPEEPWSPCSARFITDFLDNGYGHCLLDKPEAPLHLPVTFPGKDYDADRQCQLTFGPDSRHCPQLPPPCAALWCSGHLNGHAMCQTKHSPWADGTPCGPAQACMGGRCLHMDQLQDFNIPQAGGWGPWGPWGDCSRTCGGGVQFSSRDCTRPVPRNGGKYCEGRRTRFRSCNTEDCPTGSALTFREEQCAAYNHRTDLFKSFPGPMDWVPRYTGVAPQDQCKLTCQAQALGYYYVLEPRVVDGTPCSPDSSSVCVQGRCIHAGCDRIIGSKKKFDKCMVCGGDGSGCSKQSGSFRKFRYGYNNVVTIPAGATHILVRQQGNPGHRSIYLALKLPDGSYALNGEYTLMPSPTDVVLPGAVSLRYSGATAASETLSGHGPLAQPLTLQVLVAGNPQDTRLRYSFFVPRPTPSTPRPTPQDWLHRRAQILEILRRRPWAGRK

[2] = molecular target: T2, purified recombinant human Aggrecanase-2 (Ag2t-Phe628-Strep) (Homo sapiens, UniProt Q9UNA0); experiment: In vitro fluorescence screen for Aggrecanase-2 inhibitors; type: biochemical; conditions: for IC50: read-out: Agg 2 IC50
T2 construct: the form used is denoted as Ag2t-Phe628-Strep (MW=41,737)
T2 sequence (Q9UNA0 262-628): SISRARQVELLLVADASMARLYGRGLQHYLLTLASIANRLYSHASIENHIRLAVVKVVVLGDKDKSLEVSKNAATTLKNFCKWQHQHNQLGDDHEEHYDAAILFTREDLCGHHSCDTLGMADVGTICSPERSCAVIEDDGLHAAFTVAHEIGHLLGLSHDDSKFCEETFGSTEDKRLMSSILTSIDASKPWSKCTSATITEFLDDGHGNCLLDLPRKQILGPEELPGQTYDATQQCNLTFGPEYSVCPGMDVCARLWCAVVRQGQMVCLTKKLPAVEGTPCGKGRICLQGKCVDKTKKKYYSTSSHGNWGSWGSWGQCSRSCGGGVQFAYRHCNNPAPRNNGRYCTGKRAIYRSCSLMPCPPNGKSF

| Compound | IC50 ([1]; Table 2) [nM] | IC50 ([2]; Table 2) [nM] | other results |
| --- | --- | --- | --- |
| CC(C)(Cc1ccccc1)NC(=O)[C@H](CCC(=O)O)NC(=O)c1ccc(-c2ccc(CO)cc2)cc1 [Example 17SS, N-(1,1-dimethyl-2-phenylethyl)-N^2-{[4′-(hydroxymethyl)biphenyl-4-yl]carbonyl}-L-α-glutamine] | 450 | 3960 | – |
| CC(C)c1ccc(-c2ccc(C(=O)N[C@@H](CCC(=O)O)C(=O)NC(C)(C)Cc3ccccc3)cc2)cc1 [Example 17T, N-(1,1-dimethyl-2-phenylethyl)-N^2-[(4′-isopropylbiphenyl-4-yl)carbonyl]-L-α-glutamine] | 3200 | 7200 | – |
| Cc1ccc(-c2ccc(C(=O)N[C@@H](CCC(=O)O)C(=O)NC(C)(C)Cc3ccccc3)cc2)cc1 [Example 17TT, N-(1,1-dimethyl-2-phenylethyl)-N^2-[(4′-methylbiphenyl-4-yl)carbonyl]-L-α-glutamine] | 120 | 173 | – |
| CC(C)(Cc1ccccc1)NC(=O)[C@H](CCC(=O)O)NC(=O)c1ccc(-c2ccc(-c3ccccc3)cc2)cc1 [Example 17U, N-(1,1-dimethyl-2-phenylethyl)-N^2-(1,1′:4′,1″-terphenyl-4-ylcarbonyl)-L-α-glutamine] | 1800 | ~6700 | – |
| CC(C)(Cc1ccc(F)cc1)NC(=O)[C@H](CCC(=O)O)NC(=O)c1ccc(-c2cccc(O)c2)cc1 [Example 17UU, N-[2-(4-fluorophenyl)-1,1-dimethylethyl]-N^2-[(3′-hydroxybiphenyl-4-yl)carbonyl]-L-α-glutamine] | < 30 | 39 | – |
| COc1cc(CNC(=O)[C@H](CCC(=O)O)NC(=O)c2ccc(-c3ccc(O)cc3)cc2)cc(OC)c1OC [Example 17V, N^2-[(4′-hydroxybiphenyl-4-yl)carbonyl]-N-(3,4,5-trimethoxybenzyl)-L-α-glutamine] | 90 | 1800 | – |
| CN(C)C(=O)c1cccc(-c2ccc(C(=O)N[C@@H](CCC(=O)O)C(=O)NCC34CC5CC(CC(C5)C3)C4)cc2)c1 [Example 17W, N-(1-adamantylmethyl)-N^2-({3′-[(dimethylamino)carbonyl]biphenyl-4-yl}carbonyl)-L-α-glutamine] | > 25000 | ~67000 | – |
| Cc1cc(C)cc(-c2ccc(C(=O)N[C@@H](CCC(=O)O)C(=O)NCC34CC5CC(CC(C5)C3)C4)cc2)c1 [Example 17X, N-(1-adamantylmethyl)-N^2-[(3′,5′-dimethylbiphenyl-4-yl)carbonyl]-L-α-glutamine] | 2000 | ~22000 | – |
| Cc1cccc(-c2ccc(C(=O)N[C@@H](CCC(=O)O)C(=O)NC(C)(C)Cc3ccc(F)cc3)cc2)c1 [Example 17Y, N-[2-(4-fluorophenyl)-1,1-dimethylethyl]-N^2-[(3′-methylbiphenyl-4-yl)carbonyl]-L-α-glutamine] | < 30 | 156 | – |
| COc1cc(CNC(=O)[C@H](CCC(=O)O)NC(=O)c2ccc(-c3cccc(C(C)C)c3)cc2)cc(OC)c1OC [Example 17Z, N^2-[(3′-isopropylbiphenyl-4-yl)carbonyl]-N-(3,4,5-trimethoxybenzyl)-L-α-glutamine] | 170 | 3140 | – |
| COc1cc(CNC(=O)[C@H](CCC(=O)O)NC(=O)c2ccc(Br)cc2)cc(OC)c1OC [Example 18D, N^2-(4-bromobenzoyl)-N-(3,4,5-trimethoxybenzyl)-L-α-glutamine] | 4400 | > 22000 | – |
| CC(C)(Cc1ccccc1)NC(=O)[C@H](CCC(=O)O)NC(=O)c1ccc(Br)cc1 [Example 18E, N^2-(4-bromobenzoyl)-N-(1,1-dimethyl-2-phenylethyl)-L-α-glutamine] | 2200 | > 11000 | – |
| O=C(O)CC[C@H](NC(=O)c1ccc(Br)cc1)C(=O)NCC12CC3CC(CC(C3)C1)C2 [Example 18F, N-(1-adamantylmethyl)-N^2-(4-bromobenzoyl)-L-α-glutamine] | > 67000 | > 67000 | – |
| CC(C)(Cc1ccccc1)NC(=O)[C@H](CCC(=O)O)NC(=O)c1ccc(-c2ccccc2)o1 [N-(1,1-dimethyl-2-phenylethyl)-N^2-(5-phenyl-2-furoyl)-L-α-glutamine] | – | – | Agg1 % at concentration ([1]; Table 3, at 8300 (nM)): 30%; Agg 2 % at concentration ([2]; Table 3, at 25000 (nM)): 28% |
| CC(C)(Cc1ccccc1)NC(=O)[C@H](CCC(=O)O)NC(=O)c1ccc(-c2nccs2)cc1 [N-(1,1-dimethyl-2-phenylethyl)-N^2-[4-(1,3-thiazol-2-yl)benzoyl]-L-α-glutamine] | – | – | IC50 ([1]; Table 3): 270 nM; inhibition at 25 µM ([2]; read-out: Agg 2 % at concentration): 62% |
| CC(C)(Cc1ccccc1)NC(=O)[C@H](CCC(=O)O)NC(=O)c1ccc(-c2cccs2)cc1 [N-(1,1-dimethyl-2-phenylethyl)-N^2-[4-(2-thienyl)benzoyl]-L-α-glutamine] | – | – | IC50 ([1]; Table 3): < 30 nM; Ki ([1]; Table 3, read-out: Ki Agg1): < 3 nM; IC50 ([2]; Table 3): 60 to 200 nM; Ki ([2]; Table 3, read-out: Ki Agg2): 38 nM |
| CC(C)(Cc1ccccc1)NC(=O)[C@H](CCC(=O)O)NC(=O)c1ccc(-c2ccc(C=O)s2)cc1 [N-(1,1-dimethyl-2-phenylethyl)-N^2-[4-(5-formyl-2-thienyl)benzoyl]-L-α-glutamine] | – | – | IC50 ([1]; Table 3): < 30 nM; IC50 ([2]; Table 3): 500 nM |
| CC(C)(Cc1ccccc1)NC(=O)[C@H](CCC(=O)O)NC(=O)c1ccc(-c2cccnc2)s1 [N-(1,1-dimethyl-2-phenylethyl)-N^2-[(5-pyridin-3-yl-2-thienyl)carbonyl]-L-α-glutamine] | – | – | Agg1 % at concentration ([1]; Table 3, at 70 (nM)): 57% 70; IC50 ([2]; Table 3): 7200 nM |
| CC(C)(Cc1ccccc1)NC(=O)[C@H](CCC(=O)O)NC(=O)c1ccc(-c2ccncc2)s1 [N-(1,1-dimethyl-2-phenylethyl)-N^2-[(5-pyridin-4-yl-2-thienyl)carbonyl]-L-α-glutamine] | – | – | IC50 ([1]; Table 3): < 30 nM; IC50 ([2]; Table 3): 3300 nM |

The next lines start with results.

| IC50 ([1]; Table 2) [nM] | IC50 ([2]; Table 2) [nM] | Compound | other results |
| --- | --- | --- | --- |
| 930 | 1020 | COc1cccc(COc2ccc(-c3ccc(C(=O)N[C@@H](CCC(=O)O)C(=O)NCC45CC6CC(CC(C6)C4)C5)cc3)cc2)c1 [Example 19A, N-(1-adamantylmethyl)-N^2-({4′-[(3-methoxybenzyl)oxy]biphenyl-4-yl}carbonyl)-L-α-glutamine] | – |
| 3200 | 590 | COc1cc(COc2ccc(-c3ccc(C(=O)N[C@@H](CCC(=O)O)C(=O)NCC45CC6CC(CC(C6)C4)C5)cc3)cc2)cc(OC)c1 [Example 19B, N-(1-adamantylmethyl)-N^2-(4′-{[(3,5-dimethoxybenzyl)oxy]biphenyl-4-yl}carbonyl)-L-α-glutamine] | – |
| 140 | 75 | COc1cc(COc2ccc(-c3ccc(C(=O)N[C@@H](CCC(=O)O)C(=O)NC(C)(C)Cc4ccccc4)cc3)cc2)cc(OC)c1 [Example 19C, N^2-({4′-[(3,5-dimethoxybenzyl)oxy]biphenyl-4-yl}carbonyl)-N-(1,1-dimethyl-2-phenylethyl)-L-α-glutamine] | – |
| 210 | 223 | COc1cc(CNC(=O)[C@H](CCC(=O)O)NC(=O)c2ccc(-c3ccc(OCc4cc(C)cc(C)c4)cc3)cc2)cc(OC)c1OC [Example 19D, N^2-({4′-[(3,5-dimethylbenzyl)oxy]biphenyl-4-yl}carbonyl)-N-(3,4,5-trimethoxybenzyl)-L-α-glutamine] | – |
| 49 | 1120 | COc1cc(CNC(=O)[C@H](CCC(=O)O)NC(=O)c2ccc(-c3ccc(OCc4cc(C(F)(F)F)cc(C(F)(F)F)c4)cc3)cc2)cc(OC)c1OC [Example 19E, N^2-[(4′-{[3,5-bis(trifluoromethyl)benzyl]oxy}biphenyl-4-yl)carbonyl]-N-(3,4,5-trimethoxybenzyl)-L-α-glutamine] | – |
| 68 | 163 | COc1cccc(COc2ccc(-c3ccc(C(=O)N[C@@H](CCC(=O)O)C(=O)NC(C)(C)Cc4ccccc4)cc3)cc2)c1 [Example 19F, N-(1,1-dimethyl-2-phenylethyl)-N^2-({4′-[(3-methoxybenzyl)oxy]biphenyl-4-yl}carbonyl)-L-α-glutamine] | – |
| 270 | 146 | COc1cc(COc2ccc(-c3ccc(C(=O)N[C@@H](CCC(=O)O)C(=O)NCCCCCCO)cc3)cc2)cc(OC)c1 [Example 19G, N^2-({4′-[(3,5-dimethoxybenzyl)oxy]biphenyl-4-yl}carbonyl)-N-(6-hydroxyhexyl)-L-α-glutamine] | – |
| 69 | 158 | COc1cccc(COc2ccc(-c3ccc(C(=O)N[C@@H](CCC(=O)O)C(=O)NCc4cc(OC)c(OC)c(OC)c4)cc3)cc2)c1 [Example 19H, N^2-({4′-[(3-methoxybenzyl)oxy]biphenyl-4-yl}carbonyl)-N-(3,4,5-trimethoxybenzyl)-L-α-glutamine] | – |
